According to patent publication US12410160B2 (Gilead Sciences, Inc., priority 2021, dated 2025):
Read-outs that look alike come from different tables or passages of the source.

Key:
human KHK-C = human KHK-C (Homo sapiens (Human), UniProt P50053); assay: KHK Biochemical Assay (IC50), ADP-Glo, KHK-C; conditions: average of at least two separate assays
In short: (§1)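 ADP-Glo luminescence measured ADP made over a 4 h room-temperature reaction of ATP plus fructose, started after 30 min compound–enzyme pre-incubation. Buffer: 50 mM Hepes pH 7.4, 140 mM KCl, 5 mM MgCl2, 0.01% Triton-X. Enzyme was His-tagged, BL21 (DE3)-expressed, Ni-NTA-purified; compounds in 1:3 DMSO dilution series.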

[1] = molecular target: KHK-C expressed in NRK-52E cells (Homo sapiens (Human), UniProt P50053); assay: KHK-C Cell-based Assay (EC50), NRK CTG, fructose-mediated ATP-depletion
HepG2 cells = assay: F1P Cell-Based Assay (EC50), 13C6-fructose-1-phosphate in HepG2 cells (cell culture medium or 50% human plasma); conditions: Homo sapiens
human KHK-A = human KHK-A (Homo sapiens (Human), UniProt P50053); assay: KHK Biochemical Assay (IC50), ADP-Glo, KHK-A; conditions: average of at least two separate assays
In short: as §1

[2] = HepG2, HepG2 cells, 50% human plasma, read-out: F1P 50% HP EC50
[3] = HepG2, read-out: F1P 10% FBS EC50, HepG2 cells, cell culture medium (10% FBS)
[4] = read-out: NRK CTG EC50, NRK-52E cells, fructose-mediated ATP-depletion, Cell-Titer Glo

Chain of human KHK-C (P50053 whole entry): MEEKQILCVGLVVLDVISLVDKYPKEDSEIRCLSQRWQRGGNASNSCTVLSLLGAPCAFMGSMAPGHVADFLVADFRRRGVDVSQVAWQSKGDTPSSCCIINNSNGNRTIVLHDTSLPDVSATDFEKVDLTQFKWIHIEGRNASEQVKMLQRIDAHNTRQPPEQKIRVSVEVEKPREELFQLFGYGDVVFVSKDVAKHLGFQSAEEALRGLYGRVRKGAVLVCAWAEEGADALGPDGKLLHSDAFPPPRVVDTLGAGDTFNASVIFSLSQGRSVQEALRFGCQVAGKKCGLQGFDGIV
Chain of KHK-C expressed in NRK-52E cells (P50053 whole entry): as above
Chain of human KHK-A (P50053 other isoform, or with tags, fused parts or gaps): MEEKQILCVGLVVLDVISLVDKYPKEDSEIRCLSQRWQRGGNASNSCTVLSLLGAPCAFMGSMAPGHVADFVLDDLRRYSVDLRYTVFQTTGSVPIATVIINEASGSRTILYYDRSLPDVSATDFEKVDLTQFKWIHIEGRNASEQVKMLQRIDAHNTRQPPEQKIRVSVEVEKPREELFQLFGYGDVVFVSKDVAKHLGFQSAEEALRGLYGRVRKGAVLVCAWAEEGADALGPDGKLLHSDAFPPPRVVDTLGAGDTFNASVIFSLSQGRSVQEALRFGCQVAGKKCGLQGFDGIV

| Molecule | IC50 (human KHK-C) [µM] | EC50 [1] [µM] | EC50 (HepG2 cells; [2]) [µM] | EC50 (HepG2 cells; [3]) [µM] | IC50 (human KHK-A) [µM] | IC50 (human KHK-C; ADP-Glo) [µM] | IC50 (human KHK-A; ADP-Glo) [µM] | EC50 [1, 4] [µM] |
| --- | --- | --- | --- | --- | --- | --- | --- | --- |
| C[C@H]1[C@H](O)CN1c1nc(-c2cccc([S@](C)(=N)=O)c2)c2c(n1)C(F)(F)CC2 (single isomer, unassigned) [Example 493] | 0.0117 | 0.0527 | 0.0419 | 0.0324 | – | – | – | – |
| C[C@H]1[C@H](O)CN1c1nc(-c2ccc3c(c2)C(C)(C)C[C@@H]3NS(C)(=O)=O)c2c(n1)C(F)(F)CC2 (single isomer, unassigned) [Example 632] | 0.0005 | 0.0103 | > 0.5 | 0.0102 | – | – | – | – |
| C[C@H]1CCN1c1nc2c(c(-c3ccc4c(c3)C3C(C4)C3C(=O)O)n1)CCC2 (stereo partly drawn) [Example 428, 3-[2-[(2S)-2-methylazetidin-1-yl]-6,7-dihydro-5H-cyclopenta[d]pyrimidin-4-yl]-1,1a,6,6a-tetrahydrocyclopropa[a]indene-1-carboxylic acid] | 0.0413 | 0.387 | – | – | 0.0384 | – | – | – |
| C[C@H]1CCN1c1nc2c(c(-c3ccc4c(=O)[nH][nH]c(=O)c4c3)n1)CCC2 [Example 429, 6-[2-[(2S)-2-methylazetidin-1-yl]-6,7-dihydro-5H-cyclopenta[d]pyrimidin-4-yl]-2,3-dihydrophthalazine-1,4-dione] | 0.0416 | 1.73 | – | – | 0.0486 | – | – | – |
| NC(=O)c1ccc(-c2nc(N3CCC34CCC4)nc3c2CCC3)cc1 [Example 430, 4-[2-(1-azaspiro[3.3]heptan-1-yl)-6,7-dihydro-5H-cyclopenta[d]pyrimidin-4-yl]benzamide] | 2.12 | 3.22 | – | – | 3.16 | – | – | – |
| NC(=O)c1ccc(-c2nc(N3CC(O)[C@@H]3Cc3ccccc3)nc3c2CCC3)cc1 (stereo partly drawn) [Example 431, 4-[2-[(2S)-2-benzyl-3-hydroxy-azetidin-1-yl]-6,7-dihydro-5H-cyclopenta[d]pyrimidin-4-yl]benzamide] | 0.513 | 0.711 | – | – | 0.808 | – | – | – |
| C[C@H]1CCN1c1nc2c(c(-c3cccc4c3CC3C(C(=O)O)C43)n1)CCC2 (stereo partly drawn) [Example 432, 5-[2-[(2S)-2-methylazetidin-1-yl]-6,7-dihydro-5H-cyclopenta[d]pyrimidin-4-yl]-1,1a,6,6a-tetrahydrocyclopropa[a]indene-1-carboxylic acid] | 0.36 | 2.63 | – | – | 0.323 | – | – | – |
| NC(=O)c1ccc(-c2nc(N3CCC34CCOC4)nc3c2CCC3)cc1 (centres unmarked) [Example 434, 4-[2-(7-oxa-1-azaspiro[3.4]octan-1-yl)-6,7-dihydro-5H-cyclopenta[d]pyrimidin-4-yl]benzamide] | 1.62 | 3.31 | – | – | 2.93 | – | – | – |
| C[C@H]1CCN1c1nc2c(c(-c3cccc(C4CC(C(=O)O)C4)c3)n1)CCC2 (stereo partly drawn) [Example 439, 3-[3-[2-[(2S)-2-methylazetidin-1-yl]-6,7-dihydro-5H-cyclopenta[d]pyrimidin-4-yl]phenyl]cyclobutanecarboxylic acid] | 0.0131 | 0.123 | – | – | 0.0154 | – | – | – |
| C[C@H]1CCN1c1nc2c(c(-c3ccnc(OC(F)F)c3)n1)CCC2 [Example 453, 4-[2-(difluoromethoxy)-4-pyridyl]-2-[(2S)-2-methylazetidin-1-yl]-6,7-dihydro-5H-cyclopenta[d]pyrimidine] | 0.776 | 1.04 | – | – | 1.01 | – | – | – |
| C[C@H]1CCN1c1nc2c(c(-c3ccc(C4(C(=O)O)CC4)cc3)n1)CCC2 [Example 455, 1-[4-[2-[(2S)-2-methylazetidin-1-yl]-6,7-dihydro-5H-cyclopenta[d]pyrimidin-4-yl]phenyl]cyclopropanecarboxylic acid] | 0.248 | > 5 | – | – | 0.497 | – | – | – |
| C[C@H]1[C@H](O)CN1c1nc(-c2ccc3c(c2)CCC32CCC(=O)N2)c2c(n1)C(F)(F)CC2 (stereo partly drawn) [Example 636, 5-(7,7-difluoro-2-((2S,3R)-3-hydroxy-2-methylazetidin-1-yl)-6,7-dihydro-5H-cyclopenta[d]pyrimidin-4-yl)-2,3-dihydrospiro[indene-1,2′-pyrrolidin]-5′-one] | 0.0005 | 0.013 | – | – | 0.0114 | – | – | – |
| C[C@H]1[C@H](O)CN1c1nc(-c2ccc3c(c2)COCC32CCC(=O)N2)c2c(n1)C(F)(F)CC2 (some centres unmarked) [Example 639] | – | 0.035 | 0.19 | 0.0663 | – | – | – | – |
| COc1c(C)cc(-c2nc(N3C[C@@H](O)[C@@H]3C)nc3c2CCC3(F)F)cc1S(C)(=N)=O (stereo partly drawn) [Example 722, (5-(7,7-difluoro-2-((2S,3R)-3-hydroxy-2-methylazetidin-1-yl)-6,7-dihydro-5H-cyclopenta[d]pyrimidin-4-yl)-2-methoxy-3-methylphenyl)(imino)(methyl)-λ^6-sulfanone] | 0.005 | 0.0257 | – | – | 0.008 | – | – | – |
| C[C@H]1CCN1c1nc2c(c(-c3ccc4[nH]nnc4c3)n1)CCC2 [Example 729, (S)-5-(2-(2-methylazetidin-1-yl)-6,7-dihydro-5H-cyclopenta[d]pyrimidin-4-yl)-1H-benzo[d][1,2,3]triazole] | 0.0335 | 0.273 | – | – | 0.0291 | – | – | – |
| NC1(c2ccc(-c3nc(N4CCC4C(F)F)nc4c3CCC4(F)F)cc2)CS(=O)(=O)C1 (centres unmarked) [Example 799, 3-amino-3-(4-(2-(2-(difluoromethyl)azetidin-1-yl)-7,7-difluoro-6,7-dihydro-5H-cyclopenta[d]pyrimidin-4-yl)phenyl)thietane 1,1-dioxide] | – | 0.0215 | – | – | – | 0.0019 | 0.0162 | – |
| N#CCC(N)c1ccc(-c2nc(N3CC[C@@H]3C(F)(F)F)nc3c2CCC3(F)F)cc1 (stereo partly drawn) [Example 803, 3-amino-3-(4-(7,7-difluoro-2-((R)-2-(trifluoromethyl)azetidin-1-yl)-6,7-dihydro-5H-cyclopenta[d]pyrimidin-4-yl)phenyl)propanenitrile] | – | 0.0113 | – | – | – | 0.0005 | 0.0008 | – |
| COc1ccc(-c2nc(N3CC[C@@H]3C(F)(F)F)nc3c2CCC3(F)F)cc1[S@@](C)(=N)=O [Example 825, (S)-(5-(7,7-difluoro-2-((R)-2-(trifluoromethyl)azetidin-1-yl)-6,7-dihydro-5H-cyclopenta[d]pyrimidin-4-yl)-2-methoxyphenyl)(imino)(methyl)-λ^6-sulfanone] | – | 0.0056 | 0.0023 | 0.0009 | – | – | – | – |
| C[C@@H]1N(c2nc(-c3ccc4c(c3)OC[C@@]43COC(=O)N3)c3c(n2)C(F)(F)CC3)C[C@@]1(C)O [Example 829, (3R)-6-[7,7-difluoro-2-[(2S,3R)-3-hydroxy-2,3-dimethyl-azetidin-1-yl]-5,6-dihydrocyclopenta[d]pyrimidin-4-yl]spiro[2H-benzofuran-3,4′-oxazolidine]-2′-one] | – | 0.0104 | – | – | – | 0.001 | 0.0258 | – |
| O=C1N[C@@]2(CO1)COc1cc(-c3nc(N4CC[C@@H]4C(F)(F)F)nc4c3CCC4(F)F)ccc12 [Example 830, (R)-6-(7,7-difluoro-2-((R)-2-(trifluoromethyl)azetidin-1-yl)-6,7-dihydro-5H-cyclopenta[d]pyrimidin-4-yl)-2H-spiro[benzofuran-3,4′-oxazolidin]-2′-one] | – | 0.0032 | – | – | – | 0.0002 | 0.002 | – |
| O=C1N[C@@]2(CO1)COc1cc(-c3nc(N4CCC4C(F)F)nc4c3CCC4(F)F)ccc12 (stereo partly drawn) [Example 831, (3R)-6-(2-(2-(difluoromethyl)azetidin-1-yl)-7,7-difluoro-6,7-dihydro-5H-cyclopenta[d]pyrimidin-4-yl)-2H-spiro[benzofuran-3,4′-oxazolidin]-2′-one] | – | 0.0087 | – | – | – | 0.0006 | 0.0063 | – |
| COc1ccc(-c2nc(N3C[C@@H](O)[C@@H]3C)nc3c2CCC3(F)F)cc1S(=N)(=O)C(F)F (stereo partly drawn) [Example 832, (2S,3R)-1-[4-[3-(difluoromethylsulfonimidoyl)-4-methoxy-phenyl]-7,7-difluoro-5,6-dihydrocyclopenta[d]pyrimidin-2-yl]-2-methyl-azetidin-3-ol] | – | 0.0205 | – | – | – | 0.0057 | 0.0025 | – |
| C[C@H]1CCN1c1nc2c(c(-c3cccc(S(=N)(=O)C4CCOCC4)c3)n1)CCC2 (stereo partly drawn) [Example 880, imino(3-(2-((S)-2-methylazetidin-1-yl)-6,7-dihydro-5H-cyclopenta[d]pyrimidin-4-yl)phenyl)(tetrahydro-2H-pyran-4-yl)-λ^6-sulfanone] | – | > 0.1 | – | – | – | 0.0316 | 0.0225 | – |
| COc1ccc(-c2nc(N3C[C@@H](O)[C@@H]3C)nc3c2CCC3(F)F)cc1S(C)(=O)=O [Example 882, (2S,3R)-1-(7,7-difluoro-4-(4-methoxy-3-(methylsulfonyl)phenyl)-6,7-dihydro-5H-cyclopenta[d]pyrimidin-2-yl)-2-methylazetidin-3-ol] | – | 0.0346 | – | – | – | 0.0051 | 0.0045 | – |
| (S)-6-(2-(2-methylazetidin-1-yl)-6,7-dihydro-5H-cyclopenta[d]pyrimidin-4-yl)pyridine-2-sulfonamide [Example 223] | – | – | – | – | – | 0.0269 | 0.0337 | 0.0741 |
| ethyl N-[[4-[2-[(2S)-2-methylazetidin-1-yl]-6,7-dihydro-5H-cyclopenta[d]pyrimidin-4-yl]phenyl]methyl]carbamate [Example 359] | – | – | – | – | – | 0.0897 | 0.0724 | 0.495 |
